# Tests used:
# p110α Type Ia human PI3K = biological target: T1, p110α Type Ia human PI3K (Homo sapiens, UniProt P42336); assay: In vitro PI3K enzyme assay (AlphaScreen), Test (a); type: biochemical; details: recombinant enzyme, ATP 4 μM, read-out: IC50 versus p110α Type Ia human PI3K
# T1 construct: full length DNA of each of the p110α, p110β and p110δ Type Ia human PI3K p110 isoforms; 6-His; made in house
# Description: (a) In Vitro PI3K Enzyme Assay
# The assay used AlphaScreen technology (Gray et al., Analytical Biochemistry, 2003, 313: 234-245) to determine the ability of test compounds to inhibit phosphorylation by recombinant Type I PI3K enzymes of the lipid PI(4,5)P2.
# DNA fragments encoding human PI3K catalytic and regulatory subunits were isolated from cDNA libraries using standard molecular biology and PCR cloning techniques. The selected DNA fragments were used to generate baculovirus expression vectors. In particular, full length DNA of each of the p110α, p110β and p110δ Type Ia human PI3K p110 isoforms (EMBL Accession Nos. HSU79143, S67334, Y10055 for p110α, p110β and p110δ respectively) were sub-cloned into a pDEST10 vector (Invitrogen Limited, Fountain Drive, Paisley, UK). The vector is a Gateway-adapted version of Fastbac1 containing a 6-His epitope tag. A truncated form of Type Ib human PI3K p110γ isoform corresponding to amino acid residues 144-1102 (EMBL Accession No. X8336A) and the full length human p85α regulatory subunit (EMBL Accession No. HSP13KIN) were also sub-cloned into pFastBac1 vector containing a 6-His epitope tag. The Type Ia p110 constructs were co-expressed with the p85α regulatory subunit. Following expression in the baculovirus system using standard baculovirus expression techniques, expressed proteins were purified using the His epitope tag using standard purification techniques.
# DNA corresponding to amino acids 263 to 380 of human general receptor for phosphoinositides (Grp1) PH domain was isolated from a cDNA library using standard molecular biology and PCR cloning techniques. The resultant DNA fragment was sub-cloned into a pGEX 4T1 E. coli expression vector containing a GST epitope tag (Amersham Pharmacia Biotech, Rainham, Essex, UK) as described by Gray et al., Analytical Biochemistry, 2003, 313: 234-245). The GST-tagged Grp1 PH domain was expressed and purified using standard techniques.
# Test compounds were prepared as 10 mM stock solutions in DMSO and diluted into water as required to give a range of final assay concentrations. Aliquots (2 μl) of each compound dilution were placed into a well of a Greiner 384-well low volume (LV) white polystyrene plate (Greiner Bio-one, Brunel Way, Stonehouse, Gloucestershire, UK Catalogue No. 784075). […]
# Biotinylated-DiC8-PI(3,4,5)P3 (50 nM; Cell Signals Inc., Catalogue No. 107), recombinant purified GST-Grp1 PH protein (2.5 nM) and AlphaScreen Anti-GST donor and acceptor beads (100 ng; Packard Bioscience Limited, Station Road, Pangbourne, Berkshire, UK, Catalogue No. 6760603M) were added and the assay plates were left for about 5 to 20 hours at room temperature in the dark. The resultant signals arising from laser light excitation at 680 nm were read using a Packard AlphaQuest instrument. […]
# [1] = system: phosphorylation of Serine 473 in Akt; assay: In vitro phospho-Ser473 Akt assay in MDA-MB-468 cells, Test (c); type: cell-based; details: Homo sapiens, 2 hours, read-out: IC50, inhibition of phosphorylation of Serine 473 in Akt
# Method: (c) In Vitro Phospho-Ser473 Akt Assay
# This assay determines the ability of test compounds to inhibit phosphorylation of Serine 473 in Akt as assessed using Acumen Explorer technology (TTP LabTech Limited, Royston, Herts, SG8 6EE, UK), a plate reader that can be used to rapidly quantitate features of images generated by laser-scanning.
# A MDA-MB-468 human breast adenocarcinoma cell line (LGC Promochem, Teddington, Middlesex, UK, Catalogue No. HTB-132) was routinely maintained at 37° C. with 5% CO2 up to a confluency of 70-90% in DMEM containing 10% FCS and 1% L-glutamine.
# For the assay, the cells were detached from the culture flask using ‘Accutase’ (Innovative Cell Technologies Inc., San Diego, Calif., USA; Catalogue No. AT104) using standard tissue culture methods and resuspended in media to give 5.5×10^4 cells per ml. Aliquots (90 μl) were seeded into each of the inner 60 wells of a black ‘Costar’ 96-well plate (Corning Inc., NY, USA; Catalogue No. 3904) to give a density of ˜5000 cells per well. Aliquots (90 μl) of culture media were placed in the outer wells to prevent edge effects. [An alternative cell handling procedure involved the maintenance of the cells in a ‘SelecT’ robotic device (The Automation Partnership, Royston, Herts SG8 5WY, UK). Cells were resuspended in media to give 5×10^4 cells per ml. Aliquots (100 μl) were seeded into the wells of a black ‘Costar’ 96-well plate.] The cells were incubated overnight at 37° C. with 5% CO2 to allow them to adhere.
# On day 2, the cells were treated with test compounds. Test compounds were prepared as 10 mM stock solutions in DMSO and serially diluted as required with DMSO and with growth media to give a range of concentrations that were 10-fold the required final test concentrations. Aliquots (10 μl) of each compound dilution were placed in duplicate wells to give the final required concentrations. As a minimum response control, each plate contained wells having a final concentration of 30 μM LY294002 (Calbiochem, Beeston, UK, Catalogue No. 440202). As a maximum response control, wells contained 0.5% DMSO instead of test compound. [An alternative cell treatment procedure involved the transfer of test compounds to the wells using an ‘Echo 550’ liquid dispenser (Labcyte Inc., Sunnyvale, Calif. 94089, USA). Test compounds were prepared as 10 mM stock solutions in DMSO and aliquots (40 μl) of each compound were dispensed into one well of a quadrant of wells within a 384-well plate (Labcyte Inc., Catalogue No. P-05525-CV1). Four concentrations of each compound were prepared in each quadrant of wells in the 384-well plate using a ‘Hydra II’ pipettor (Matrix Technologies Corporation, Handforth SK9 3LP, UK). […]
# [2] = biological target: mTOR PI kinase-related kinase (Homo sapiens, UniProt P42345); assay: In vitro mTOR PI kinase-related kinase assay (AlphaScreen), Test (b); type: biochemical; details: recombinant mTOR (1362-2549), ATP 20 μM, read-out: IC50 versus mTOR PI kinase-related kinase
# Sequence of mTOR PI kinase-related kinase (P42345 1362-2549): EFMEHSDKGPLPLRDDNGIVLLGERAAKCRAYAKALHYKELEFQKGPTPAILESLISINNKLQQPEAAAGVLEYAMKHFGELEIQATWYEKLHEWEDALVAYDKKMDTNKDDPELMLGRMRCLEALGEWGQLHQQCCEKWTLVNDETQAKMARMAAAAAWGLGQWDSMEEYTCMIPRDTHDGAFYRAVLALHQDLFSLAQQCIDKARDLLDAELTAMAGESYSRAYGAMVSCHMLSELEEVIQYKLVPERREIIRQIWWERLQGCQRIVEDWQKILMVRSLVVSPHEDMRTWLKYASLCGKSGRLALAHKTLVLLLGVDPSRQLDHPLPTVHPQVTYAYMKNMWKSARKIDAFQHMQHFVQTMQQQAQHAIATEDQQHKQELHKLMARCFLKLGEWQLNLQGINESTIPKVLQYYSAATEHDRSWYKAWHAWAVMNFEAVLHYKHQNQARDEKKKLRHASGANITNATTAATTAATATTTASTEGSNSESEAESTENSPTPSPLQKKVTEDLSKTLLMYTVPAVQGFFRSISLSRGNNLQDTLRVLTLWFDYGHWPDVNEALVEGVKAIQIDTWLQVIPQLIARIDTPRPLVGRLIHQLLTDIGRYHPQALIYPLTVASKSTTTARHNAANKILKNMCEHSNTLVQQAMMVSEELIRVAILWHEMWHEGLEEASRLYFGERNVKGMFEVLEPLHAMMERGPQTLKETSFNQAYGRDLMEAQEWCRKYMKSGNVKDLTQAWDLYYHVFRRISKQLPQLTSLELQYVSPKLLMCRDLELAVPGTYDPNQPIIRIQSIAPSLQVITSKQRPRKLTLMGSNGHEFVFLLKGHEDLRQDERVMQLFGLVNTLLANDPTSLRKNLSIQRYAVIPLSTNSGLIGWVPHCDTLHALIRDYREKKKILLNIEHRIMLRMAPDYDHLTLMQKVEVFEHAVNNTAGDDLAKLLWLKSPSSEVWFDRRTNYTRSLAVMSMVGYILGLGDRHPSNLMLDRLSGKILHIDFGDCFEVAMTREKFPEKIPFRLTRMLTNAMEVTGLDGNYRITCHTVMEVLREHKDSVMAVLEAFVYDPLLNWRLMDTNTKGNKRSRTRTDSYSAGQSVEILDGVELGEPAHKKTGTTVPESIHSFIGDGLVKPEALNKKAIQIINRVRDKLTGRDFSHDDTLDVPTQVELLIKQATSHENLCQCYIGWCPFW
# Method: (b) In Vitro mTOR PI Kinase-Related Kinase Assay
# The assay used AlphaScreen technology (Gray et al, Analytical Biochemistry, 2003, 313: 234-245) to determine the ability of test compounds to inhibit phosphorylation by recombinant mTOR. […]
# Each reaction was stopped by the addition of 10 μl of a mixture of EDTA (50 mM), bovine serum albumin (BSA; 0.5 mg/ml) and Tris-HCl pH7.4 buffer (50 mM) containing p70 S6 Kinase (T389) 1A5 Monoclonal Antibody (Cell Signalling Technology, Catalogue No. 9206B) and AlphaScreen Streptavidin donor and Protein A acceptor beads (200 ng; Perkin Elmer, Catalogue No. 6760002B and 6760137R respectively) were added and the assay plates were left for about 20 hours at room temperature in the dark. The resultant signals arising from laser light excitation at 680 nm were read using a Packard Envision instrument.
# Phosphorylated biotinylated peptide is formed in situ as a result of mTOR mediated phosphorylation. […] Upon laser light excitation at 680 nm, the donor bead:acceptor bead complex produces a signal that can be measured. […]
# mTOR enzyme inhibition for a given test compound was expressed as an IC50 value.
# T1 sequence (P42336 whole entry, canonical isoform): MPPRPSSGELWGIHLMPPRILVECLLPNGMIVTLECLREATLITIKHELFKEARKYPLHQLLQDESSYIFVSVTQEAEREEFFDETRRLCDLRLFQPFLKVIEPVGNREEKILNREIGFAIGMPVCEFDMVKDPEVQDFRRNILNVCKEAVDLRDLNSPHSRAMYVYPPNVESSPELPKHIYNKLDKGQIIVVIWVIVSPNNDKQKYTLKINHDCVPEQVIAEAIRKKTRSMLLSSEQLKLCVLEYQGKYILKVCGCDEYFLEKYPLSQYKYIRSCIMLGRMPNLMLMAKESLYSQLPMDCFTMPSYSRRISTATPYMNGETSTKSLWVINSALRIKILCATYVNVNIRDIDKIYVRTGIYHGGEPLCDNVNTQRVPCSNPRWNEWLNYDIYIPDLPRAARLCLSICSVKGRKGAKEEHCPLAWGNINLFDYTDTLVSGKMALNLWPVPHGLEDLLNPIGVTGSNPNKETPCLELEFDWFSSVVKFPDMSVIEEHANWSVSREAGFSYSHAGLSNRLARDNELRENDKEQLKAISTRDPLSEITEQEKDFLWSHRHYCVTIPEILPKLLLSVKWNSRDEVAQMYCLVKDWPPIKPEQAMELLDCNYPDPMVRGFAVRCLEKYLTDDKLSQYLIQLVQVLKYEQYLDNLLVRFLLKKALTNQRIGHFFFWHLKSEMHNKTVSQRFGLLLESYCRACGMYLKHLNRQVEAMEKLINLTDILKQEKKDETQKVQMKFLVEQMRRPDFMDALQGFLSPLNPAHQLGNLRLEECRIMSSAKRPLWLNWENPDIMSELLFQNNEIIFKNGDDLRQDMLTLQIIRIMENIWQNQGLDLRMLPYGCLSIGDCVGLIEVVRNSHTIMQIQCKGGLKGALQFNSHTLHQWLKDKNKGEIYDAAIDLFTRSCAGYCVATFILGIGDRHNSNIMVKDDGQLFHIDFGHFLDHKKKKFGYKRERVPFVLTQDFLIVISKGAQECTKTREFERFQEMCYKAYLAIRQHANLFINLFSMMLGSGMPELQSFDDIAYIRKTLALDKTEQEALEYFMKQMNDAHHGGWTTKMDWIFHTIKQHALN
# T1 sequence (P27986 whole entry partner, canonical isoform): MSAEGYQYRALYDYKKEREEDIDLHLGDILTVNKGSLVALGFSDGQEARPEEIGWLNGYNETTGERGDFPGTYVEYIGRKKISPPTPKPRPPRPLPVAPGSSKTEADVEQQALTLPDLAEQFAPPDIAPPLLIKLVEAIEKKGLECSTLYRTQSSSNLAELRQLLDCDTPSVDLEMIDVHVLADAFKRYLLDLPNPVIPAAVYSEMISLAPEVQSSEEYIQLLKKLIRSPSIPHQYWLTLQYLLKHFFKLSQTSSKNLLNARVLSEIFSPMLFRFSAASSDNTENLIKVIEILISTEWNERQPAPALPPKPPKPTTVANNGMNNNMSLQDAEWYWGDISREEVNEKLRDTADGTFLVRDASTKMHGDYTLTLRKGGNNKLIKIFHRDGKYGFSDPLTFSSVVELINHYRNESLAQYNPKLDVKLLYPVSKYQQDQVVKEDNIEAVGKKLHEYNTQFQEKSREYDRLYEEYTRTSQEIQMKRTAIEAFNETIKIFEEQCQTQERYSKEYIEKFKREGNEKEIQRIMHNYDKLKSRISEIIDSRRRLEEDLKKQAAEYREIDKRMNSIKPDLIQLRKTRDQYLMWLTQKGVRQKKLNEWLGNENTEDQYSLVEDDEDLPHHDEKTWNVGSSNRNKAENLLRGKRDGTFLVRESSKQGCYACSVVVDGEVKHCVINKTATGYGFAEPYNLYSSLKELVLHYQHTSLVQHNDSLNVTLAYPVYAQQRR
IC50 (p110α Type Ia human PI3K) [µM],IC50 [1] [µM],IC50 [2] [µM],SMILES
~0.1,~3,–,"Cc1nc2[nH]ccc2cc1-c1cnc(Cl)c(NS(=O)(=O)c2ccccc2)c1 [Example 8, N-[2-chloro-5-(6-methyl-1H-pyrrolo[2,3-b]pyridin-5-yl)pyridin-3-yl]benzenesulphonamide]"
~0.5,~13,~1,"CS(=O)(=O)Nc1cc(-c2cnc3[nH]ccc3c2)cnc1Cl [Example 1, N-[2-chloro-5-(1H-pyrrolo[2,3-b]pyridin-5-yl)pyridin-3-yl]methanesulphonamide]"
~0.2,~5,–,"O=S(=O)(Nc1cc(-c2cnc3[nH]ccc3c2)cnc1Cl)c1ccccc1 [Example 3, N-[2-chloro-5-(1H-pyrrolo[2,3-b]pyridin-5-yl)pyridin-3-yl]benzenesulphonamide]"
~0.5,~2,–,"Cc1nc2[nH]cnc2cc1-c1cnc(Cl)c(NS(=O)(=O)c2ccccc2)c1 [Example 7, N-[2-chloro-5-(5-methyl-3H-imidazo[4,5-b]pyridin-6-yl)pyridin-3-yl]benzenesulphonamide]"
